Measured values published in US8318950B2, “N-acyl amino acid derivatives, a method for the preparation thereof, a pharmaceutical composition and use thereof as anti-allergic, anti-inflammatory and hypolipidemic agents” (Otkrytoe Aktsionernoe Obschestvo-Otechestvennye Lekarstva, priority 2005, dated 2012).

Columns and labels:
[1] = system: endogenous hypercholesterolemia in guinea pigs; assay: Model of endogenous hypercholesterolemia in guinea pigs (fat loading); assay type: in vivo, guinea pig; details: during 20 days, doses from 50 to 1,500 μg/kg
[2] = system: guinea pig blood basophils; assay: In vitro ovalbumin (OA)-induced blood basophil degranulation of immunized guinea pig; assay type: cell-based
Description: Leukocytes from guinea pig blood were isolated according to the Freemel's method [Immunologicheskiye Metody under edition of G. Frimel/Moscow., “Meditsina” publishers, 1987, p. 222 in the inventor's modification].
Guinea pigs of both sexes weighing from 600 to 800 g were used to conduct the test. The animals were once immunized with a mixture of 10 μg ovalbumin and 100 mg aluminum hydroxide per one animal according to Andersson [Anderson P. Antigen-induced bronchial anaphylaxis in actively sensitized guinea-pigs.//Allergy. 1980. Vol. 35. P. 63-71].
Under ester anesthesia, 15 ml blood were drawn from guinea pig heart. Double precipitation of cells using EDTA and a citrate-containing precipitating liquid was used to isolate basophils in the leukocyte suspension.
Blood was mixed with 5% EDTA.Na2 2H2O (“Sigma”) solution at 9:1 ratio and in 30 minutes it was subjected to mild centrifugation (for 12 minutes at 80 g). Supernatant was collected and centrifuged for 15 minutes at 500 g.
To the remaining cells, a citrate-containing precipitating liquid (3) was added at proportion 3:10 (it was thermostated at 37° C. for 30 minutes). A supernatant fraction enriched by leukocytes was centrifuged for 7 minutes at 100 g. To leukocyte precipitate, 0.85% NaCl solution was added and cellular concentration was brought to 30×10^3 μl.
Protocol of the in vitro basophil degranulation test [Spravochnil po klinicheskim laboratomym metodam issledovaniya (A reference book on clinical-laboratory examination methods)/Edited by E. A. Cost/Moscow, “Meditsina” publishers, 1975, p. 130].
For the test, a centrifuge tube (3 tubes per each sample) was filled with 300 μl cellular suspension, then salt solution of a tested compound (or a salt solution in the control of spontaneous and maximum degranulation) was added and pre-incubated at 37° C. for 15 minutes, then into each tube 300 μl 1% OA solution was added (in the control of spontaneous degranulation a salt solution in the same amount was added) and once more pre-incubated at 37° C. for 10 minutes. Functional leukocyte concentration was 10^4/μl. Samples (100 μl) were taken off from each tube into separate tubes to assess a complete basophil degranulation, and to the remained cells, a cooled salt solution was added (5 ml into each tube) to arrest degranulation reaction, then the tubes were centrifuged for 7 min at 100 g, and from precipitate, preparations for microscopy were prepared. The preparations were fixed and stained according to the method of Seder et al. [Seder R. A. et al. Mouse splenic and bone marrow cell populations that express high—affinity Fcε receptors and produce interleukin-4 are highly enriched in basophils.//Proc. Natl. Acad. USA, 1991, V. 88, P. 2835-2839].
In order to detect a specific basophil granulation, the dye 0.5% alcyanic blue (pH 1.0) was used, nuclei were additionally stained with safranin (0.1% solution in 1% acetic acid). The preparations were used to assess a total degranulation inhibition.
A total degranulation inhibition (DI) (%) was calculated according to the formula: […]
max—% of degranulated basophils at the maximum degranulation (OA)
spontaneous—% of degranulated basophils in spontaneous degranulation (control)
experimental—% of degranulated basophils following exposure to the tested compound.
Assessment of a Complete Basophil Degranulation
Samples selected following basophil degranulation test (100 μl each) were poured into tubes with the dye (0.5% alcyane blue, pH 1.0) at ratio 1:1. Staining was carried out at room temperature for not less than 50 min. Stained basophils were calculated using the Fooks-Rosenthal chamber. Inhibition of a complete basophil degranulation (ICD) was calculated according to the formula: ICD(%)=1−[(Mm(c)−Mm(exper.)]/Mm(c)−Mm(OA)]×100, wherein
M m (c)—mean (by three samples) basophil number in the spontaneous basophil degranulation test
M±m (OA)—mean (by three samples) basophil number in the maximum antigen-induced basophil degranulation test; […]

## O=C(O)CCCC(=O)N[C@@H](Cc1c[nH]cn1)C(=O)O [Compound IV, N^α-glutaryl-L-histidine]
[1]
  lowering total cholesterol level at different doses (FIG. 1): practically similarly effective in lowering total cholesterol level
[2]; 10^−3 M
  Number of completely degranulated basophils: 2.6 ± 2.6 %
[2]; 10^−4 M
  Number of completely degranulated basophils: 2.9 ± 1.6 %
[2]; 10^−5 M
  Number of completely degranulated basophils: 0%
[2]; 10^−6 M
  Number of completely degranulated basophils: 3.9 ± 0.6%
[2]; 10^−7 M
  Number of completely degranulated basophils: 9.1 ± 0.8%
[2]; Cavia porcellus, 10^−3 M, read-out: Complete degranulation inhibition (CDI)
  inhibition at 1000 µM: 99.2 ± 11.2%
[2]; Cavia porcellus, 10^−4 M, read-out: Complete degranulation inhibition (CDI)
  inhibition at 100 µM: 99.5 ± 12%
[2]; Cavia porcellus, 10^−5 M, read-out: Complete degranulation inhibition (CDI)
  inhibition at 10 µM: 114 ± 2.7%
[2]; Cavia porcellus, 10^−6 M, read-out: Complete degranulation inhibition (CDI)
  inhibition at 1 µM: 90 ± 1.8%
[2]; Cavia porcellus, 10^−7 M, read-out: Complete degranulation inhibition (CDI)
  inhibition at 0.1 µM: 76.7 ± 1.5%
[2]; calcium free medium
  degranulation inhibition in the test of complete OA-induced degranulation: ~100%
